Assays:
[1] = test system: subjects with uterine serous carcinoma (USC); test: ZN-c3-001 (NCT04158336) open label, multicenter, Phase I dose escalation and expansion study; subjects with USC at doses ≥300 mg QD; format: in vivo, human; conditions: for Spleen: baseline 21 mm; for Peritoneum: baseline 17.8 mm
Experimental: ZN-c3-001 (NCT04158336) is an open label, multicenter, Phase I dose escalation and expansion study evaluating the safety and clinical activity of ZN-c3 in subjects with advanced or metastatic solid tumors, refractory to standard therapy or for whom no standard therapy is available. Oral, daily ZN-c3 dosing was escalated from 25 mg to 450 mg once daily (QD), with a recommended phase 2 dose of 300 mg QD. Here we report preliminary safety and efficacy results for subjects with USC who received ZN-c3 at doses ≥300 mg QD.

[2] = test system: multiple cell lines and xenograft models; test: in vitro antitumor activity in multiple cell lines and xenograft models; format: cell-based
[3] = subject #1, Follow-up 1 (February 2021)
[4] = subject #1, Follow-up 2 (April 2021)
[5] = subject #1, Follow-up 3 (June 2021)
[6] = subject #2, Follow-up 1 (March 2021)
[7] = subject #2, Follow-up 2 (April 2021)
[8] = subject #2, Follow-up 2 (April 2021), baseline 15 mm
[9] = subject #2, Follow-up 3 (June 2021)
[10] = subject #2, Follow-up 3 (June 2021), baseline 15 mm
[11] = subject #2, Follow-up 4 (July 2021)
[12] = subject #2, Follow-up 4 (July 2021), baseline 15 mm
[13] = subject #2, Follow-up 5 (August 2021)
[14] = subject #2, Follow-up 5 (August 2021), baseline 15 mm
[15] = subject #3, Follow-up 1 (May 2021)
[16] = subject #3, Follow-up 2 (July 2021)
[17] = subject #3, Follow-up 3 (August 2021)
[18] = subject #3, Follow-up 4 (September 2021)
[19] = subject #3, Follow-up 5 (November 2021)

Grade ≥3 TRAEs occurring in ≥2 subjects ([1]; 14 USC subjects, ≥300 mg QD): anemia and thrombocytopenia
subjects with each Grade ≥3 hematologic event (anemia, thrombocytopenia) ([1]; 14 USC subjects, ≥300 mg QD): 2 subjects each
Structure (SMILES): C=CCn1c(=O)c2cnc(Nc3ccc(N4CCN(C)CC4)cc3)nc2n1-c1ccc2c(n1)[C@@](O)(CC)CC2 [ZN-c3, (R)-2-allyl-1-(7-ethyl-7-hydroxy-6,7-dihydro-5H-cyclopenta[b]pyridin-2-yl)-6-((4-(4-methylpiperazin-1-yl)phenyl)amino)-1,2-dihydro-3H-pyrazolo[3,4-d]pyrimidin-3-one]
progressive disease as best overall response ([1]; 1 of 11 evaluable USC subjects, ≥300 mg QD): 9.1%
confirmed partial response as best overall response ([1]; 3 of 11 evaluable USC subjects, ≥300 mg QD): 27.3%
stable disease as best overall response ([1]; 7 of 11 evaluable USC subjects, ≥300 mg QD): 63.6%
Disease control rate (complete response, partial response, and stable disease) ([1]; 11 evaluable USC subjects, ≥300 mg QD): 90.9%
TRAEs grades 1-4 occurring in ≥3 subjects, by decreasing frequency ([1]; 14 USC subjects, ≥300 mg QD): nausea, vomiting, diarrhea, fatigue, decreased appetite, dehydration, and anemia
subjects reporting at least one treatment-related adverse event (TRAE) ([1]; 14 USC subjects, ≥300 mg QD): 12 of 14
safety and tolerability ([1]; single agent, oral doses ≥300 mg QD): safe and well-tolerated
peritoneum imaging result (FIG. 1) ([1]; subject #1, 2nd restaging (April 2021) vs baseline (November 2020)): confirmed partial response
best response ([1]; subject #1, start 350 mg QD): Confirmed PR
reduction overall ([1]; subject #1, start 350 mg QD): 49%
time on the study drug until radiologic disease progression ([1]; subject #1, start 350 mg QD): 199 days
Target Lesions ([1]; subject #1, start 350 mg QD, Follow-up 1 (February 2021), baseline 24 mm): 15 mm
Tumor marker CA-125, minimum ([1]; subject #1, start 350 mg QD, after ~3 months of treatment, baseline 36 U/mL): 12 U/mL
New Lesions [1, 3]: No
Percentage of overall tumor reduction [1, 3]: −48.9%
Tumor Response by RECIST 1.1 [1, 3]: Partial
Spleen [1, 3]: 8 mm
Target Lesions Sum ([1]; subject #1, Follow-up 1 (February 2021), baseline 45 mm): 23 mm
New Lesions [1, 4]: No
Percentage of overall tumor reduction [1, 4]: −48.9%
Tumor Response by RECIST 1.1 [1, 4]: Partial
Spleen [1, 4]: 7 mm
Target Lesions ([1]; subject #1, Follow-up 2 (April 2021), baseline 24 mm): 16 mm
Target Lesions Sum ([1]; subject #1, Follow-up 2 (April 2021), baseline 45 mm): 23 mm
New Lesions [1, 5]: No
Percentage of overall tumor reduction [1, 5]: −48.9%
Tumor Response by RECIST 1.1 [1, 5]: Progressive
Spleen [1, 5]: 7 mm
Target Lesions ([1]; subject #1, Follow-up 3 (June 2021), baseline 24 mm): 16 mm
Target Lesions Sum ([1]; subject #1, Follow-up 3 (June 2021), baseline 45 mm): 23 mm
peritoneum imaging result (FIG. 2) ([1]; subject #2, 1st restaging (March 2021) vs baseline (January 2021)): partial response
best response ([1]; subject #2, start 300 mg QD): Confirmed PR
reduction overall ([1]; subject #2, start 300 mg QD): 43%
time on the study drug until radiologic disease progression ([1]; subject #2, start 300 mg QD): 230 days
Target Lesions ([1]; subject #2, start 300 mg QD, Follow-up 1 (March 2021), baseline 15 mm): 06 mm
Tumor marker CA-125 ([1]; subject #2, start 300 mg QD, after 2 months of treatment, baseline 440 U/mL): < 50 U/mL
New Lesions [1, 6]: No
Percentage of overall tumor reduction [1, 6]: −43%
Tumor Response by RECIST 1.1 [1, 6]: Partial Response
Lymph Node ([1]; subject #2, Follow-up 1 (March 2021), baseline 15 mm): 11 mm
Target Lesions Sum ([1]; subject #2, Follow-up 1 (March 2021), baseline 30 mm): 17 mm
New Lesions [1, 7]: No
Percentage of overall tumor reduction [1, 7]: −43%
Tumor Response by RECIST 1.1 [1, 7]: Partial Response
Lymph Node [1, 8]: 10 mm
Target Lesions [1, 8]: 07 mm
Target Lesions Sum ([1]; subject #2, Follow-up 2 (April 2021), baseline 30 mm): 17 mm
New Lesions [1, 9]: No
Percentage of overall tumor reduction, from baseline [1, 9]: −40% from baseline
Percentage of overall tumor reduction, from nadir [1, 9]: +6% from nadir
Tumor Response by RECIST 1.1 [1, 9]: Partial Response
Lymph Node [1, 10]: 10 mm
Target Lesions [1, 10]: 8 mm
Target Lesions Sum ([1]; subject #2, Follow-up 3 (June 2021), baseline 30 mm): 18 mm
New Lesions [1, 11]: No
Percentage of overall tumor reduction, from baseline [1, 11]: −30% from baseline
Percentage of overall tumor reduction, from nadir [1, 11]: +24% from nadir
Tumor Response by RECIST 1.1 [1, 11]: Partial Response
Lymph Node [1, 12]: 10 mm
Target Lesions [1, 12]: 11 mm
Target Lesions Sum ([1]; subject #2, Follow-up 4 (July 2021), baseline 30 mm): 21 mm
New Lesions [1, 13]: No
Percentage of overall tumor reduction, from baseline [1, 13]: −30% from baseline
Percentage of overall tumor reduction, from nadir [1, 13]: +24% from nadir
Tumor Response by RECIST 1.1 [1, 13]: Progressive Disease
Lymph Node [1, 14]: 10 mm
Target Lesions [1, 14]: 11 mm
Target Lesions Sum ([1]; subject #2, Follow-up 5 (August 2021), baseline 30 mm): 21 mm
peritoneum imaging result (FIG. 3) ([1]; subject #3, 5th restaging (November 2021) vs baseline (April 2021)): complete response
best response ([1]; subject #3, start 300 mg QD): Unconfirmed Complete Response
reduction overall ([1]; subject #3, start 300 mg QD): 100%
time on the study drug until clinical disease progression ([1]; subject #3, start 300 mg QD): 252 days
Target Lesions ([1]; subject #3, start 300 mg QD, Follow-up 1 (May 2021), baseline 36.6 mm): 21.7 mm
New Lesions [1, 15]: No
Percentage of overall tumor reduction [1, 15]: −32%
Tumor Response by RECIST 1.1 [1, 15]: Partial Response
Peritoneum [1, 15]: 15.3 mm
Target Lesions Sum ([1]; subject #3, Follow-up 1 (May 2021), baseline 54.4 mm): 37 mm
New Lesions [1, 16]: No
Percentage of overall tumor reduction [1, 16]: −67.8%
Tumor Response by RECIST 1.1 [1, 16]: Partial Response
Peritoneum ([1]; subject #3, Follow-up 2 (July 2021), (too small)): 5 mm (too small)
Target Lesions ([1]; subject #3, Follow-up 2 (July 2021), baseline 36.6 mm): 12.5 mm
Target Lesions Sum ([1]; subject #3, Follow-up 2 (July 2021), baseline 54.4 mm): 17.5 mm
New Lesions [1, 17]: No
Percentage of overall tumor reduction [1, 17]: −76.5%
Tumor Response by RECIST 1.1 [1, 17]: Partial Response
Peritoneum ([1]; subject #3, Follow-up 3 (August 2021), (too small)): 5 mm (too small)
Target Lesions ([1]; subject #3, Follow-up 3 (August 2021), baseline 36.6 mm): 7.8 mm
Target Lesions Sum ([1]; subject #3, Follow-up 3 (August 2021), baseline 54.4 mm): 12.8 mm
New Lesions [1, 18]: No
Percentage of overall tumor reduction [1, 18]: −82%
Tumor Response by RECIST 1.1 [1, 18]: Partial Response
Peritoneum ([1]; subject #3, Follow-up 4 (September 2021), (too small)): 5 mm (too small)
Target Lesions ([1]; subject #3, Follow-up 4 (September 2021), baseline 36.6 mm, (too small)): 5 mm (too small)
Target Lesions Sum ([1]; subject #3, Follow-up 4 (September 2021), baseline 54.4 mm): 10 mm
New Lesions [1, 19]: No
Percentage of overall tumor reduction [1, 19]: −100%
Tumor Response by RECIST 1.1 [1, 19]: Complete Response
Peritoneum [1, 19]: 0 mm
Target Lesions ([1]; subject #3, Follow-up 5 (November 2021), baseline 36.6 mm): 0 mm
Target Lesions Sum ([1]; subject #3, Follow-up 5 (November 2021), baseline 54.4 mm): 0 mm
clinical activity ([1]; subjects with recurrent or advanced USC, Examples 1-3): demonstrated clinical activity
antitumor activity [2]: significant in vitro antitumor activity

From patent publication US20240197743A1, “WEE1 COMPOUND FOR TREATING UTERINE SEROUS CARCINOMA” (Recurium IP Holdings, LLC, priority 2021, published 2024)
